Measurements reported in PMC11266932, “Enhanced absorption of prenylated cinnamic acid derivatives from Brazilian green propolis by turmeric in humans and rats” (Food Science & Nutrition, 2024).
Like-named read-outs stand apart in the source and are kept apart here.

Key:
[1] = Clinical trial: plasma concentration and AUC of cinnamic acid derivatives after ingestion of BGP alone or BGP plus herbal extract mixture; format: in vivo; details: humans, BGP and herbal extracts co-administered; for fold increase of AUC versus BGP administered alone: 0–24 h; for AUC: plasma 0–24 h, after enzymatic deconjugation, mean ± SD, n = 6
Description: Six volunteers (three males and three females) completely understood the study protocol and consented to participate in the research. The following exclusion criteria were used for shortlisting participants: past or present medical history (asthma, significant allergies, heart, liver, kidney, and urinary tract disease); prescribed medication; pregnancy; smoking (>20 cigarettes/day); alcohol consumption (>500 mL/day of beer); use of dietary supplements and healthy foods; and participation in other clinical trials. The participants were instructed to refrain from consuming propolis and propolis‐containing foods and beverages during the study period and 1 week prior to the start of the study. After a 12‐h fast, the participants were given a test food comprising the encapsulated BGP powder or a mixture of the BGP powder and herbal extracts in two experimental periods separated by 1 week. […] The collected samples were centrifuged at 1500 g for 3 min at 23 ± 2°C to separate the plasma, which was subsequently preserved at −80°C until further sample preparation.
(§1) Briefly, 50 μL of plasma was treated with a sulfatase/β‐glucuronidase solution (sulfatase 15 units/sample) in 100 mM sodium acetate and 5 mM ascorbate at 37°C for 1 h. Following the incubation, 850 μL of methanol was added to the samples to stop the deconjugation reaction, after which centrifugation was performed at 2000 g for 10 min at 23 ± 2°C. The supernatant was evaporated under nitrogen gas and then reconstituted in a fixed volume of methanol. The samples were filtered through a 0.22 μm PTFE membrane and then analyzed by LC–MS/MS.
(§2) Briefly, 5 μL of the sample was injected into a reversed‐phase column (Acquity UPLC BEH C18, 2.1 × 100 mm, ID. 1.7 μm; Waters, Milford, MA, USA) held at 30°C. The elution was performed using solvent A (0.1% formic acid) and solvent B (acetonitrile) at a flow rate of 0.3 mL/min. The gradient profiles were as follows: 5% B (0–2 min), 5–95% B (2–22 min), 95% B (22–25 min), and 5% B (25–30 min). Tandem mass spectrometry (MS/MS) was conducted using an ion trap mass spectrometer with a heated electrospray ion source (HESI) in both positive and negative ionization modes (scan range m/z 70–1000). […] External standard curves for cinnamic acid derivatives were generated using eight concentrations of authentic standard solutions (1, 5, 10, 50, 100, 250, 500, and 1000 ng/mL).
(§3) Quantification of cinnamic acid derivatives in the plasma was performed using the Trace Finder software version 4.1 (Thermo Scientific). The plasma concentration versus time data for the analytes obtained from each human and rat were entered into a Microsoft Excel spreadsheet. The area under the plasma concentration–time curve (AUC) was calculated using the linear trapezoidal rule, extending to the last sampling point.

[2] = Animal study: plasma concentration and AUC of cinnamic acid derivatives after intragastric BGP with or without each herbal extract; format: in vivo, Wistar/ST rats; details: rats
Description: Wistar/ST rats (male, 7 weeks old) were purchased from Japan SLC (Shizuoka, Japan). […] The rats were quarantined and acclimatized under the above conditions for 1 week and divided into six groups (eight rats/group) according to their average body weight (240–260 g). Each test sample listed in Table 1 was dissolved in 10% propylene glycol (1 mL per rat) and administered intragastrically to the rats after an overnight fasting period with free access to water. […] The collected samples were centrifuged at 1500 g for 10 min at 4°C to separate the plasma and preserved at −80°C until further sample preparation.
as §1, §2, §3

[3] = BGP co-administered with turmeric extract

Row | SMILES | fold increase of AUC versus BGP administered alone [1] [fold] | AUC [1] [ng·h/mL] | fold increase of plasma concentration versus BGP alone ([2]; BGP + turmeric extract, 30 min after administration) [fold] | fold increase of plasma concentration versus BGP alone ([2]; BGP + turmeric extract, 3 h after administration) [fold] | fold increase of plasma concentration versus BGP alone ([2]; BGP + turmeric extract, 6 h after administration) [fold] | fold increase of AUC versus BGP administered alone [2, 3] [fold] | AUC ([1]; both sexes, human, oral, read-out: AUC) [ng·h/mL] | change of plasma concentration versus BGP alone (in words) ([2]; BGP + turmeric extract, at 30 min and 3 h) | change of AUC versus BGP alone (in words) ([2]; BGP co-administered with gotu kola extract) | change of AUC versus BGP alone (in words) [2, 3]
1 | CC(C)=CCc1cc(/C=C/C(=O)O)cc(C/C=C(\C)CO)c1O [capillartemisin A] | 1.6 | 57.0 ± 16.5 | 2.2 | 1.7 | 3.0 | 1.7 |  |  |  | 
2 | CC(C)=CCc1cc(C=CC(=O)O)cc(O)c1O [3,4‐dihydroxy‐5‐prenylcinnamic acid] | 1.8 |  |  |  |  |  | 34.5 ± 12.2 | significant increases or increasing trends | tended to increase | tended to increase
